Measured values: US20210220489A1, “AMYGDALAR NEURAL ENSEMBLE THAT ENCODES THE UNPL[…] PAIN” (The Board of Trustees of the Leland Stanford Junior …, priority 2020, published 2021)

How the values were obtained:
Assay type in all cases: in vivo
[1] = system: neuropathic TRAP^hM4 mice; assay: Neuropathic (spared nerve injury) reflexive and affective-motivational pain behaviors; settings: day 42 postinjury
From the text: To induce a chronic pain state, we used a modified version of the Spared Nerve Injury (SNI) model of neuropathic pain, as previously described (70). This model entails surgical section of two of the sciatic nerve branches (common peroneal and tibial branches) while sparing the third (sural branch). […] To perform this peripheral nerve injury procedure, anesthesia was induced and maintained throughout surgery with isoflurane (4% induction, 1.5% maintenance in oxygen). The left hind leg was shaved and wiped clean with alcohol and betadine. We made a 1-cm incision in the skin of the mid-dorsal thigh, approximately where the sciatic nerve trifurcates. […] Mice were then returned to their home cage and closely monitored over the following three days for well-being.
We habituated mice inside individual red plastic cylinders (10.16-cm D) on a raised flat, perforated metal platform (60.96-cm H) for 3 days prior to the start of behavioral sensory testing. After basal thermal and mechanical thresholds were measured, mice underwent a peripheral nerve injury surgery (Spared Nerve Injury, SNI; see “Chronic neuropathic pain model” above for details of the surgical procedure). […]

[2] = system: neuropathic TRAP^hM4 mice; assay: Two-chamber thermal escape-avoidance (cold place aversion) assay; settings: floor of one chamber cooled from 30° to 10° C.
Method: To evaluate neuropathic adaptive cool/cold avoidance behavior, mice with SNI freely explored a two-temperature choice chamber. The chamber was constructed from adjoining two thermal plates (Bioseb): one reference plate set at 30° C., and a test plate with the temperature adjusted to either 30, 25, 20, 15, or 10° C. for independent trials. The test plate temperature order was randomized for each trial within the day. The chamber (white opaque plastic with no distinguishing features and no divider, 30.48×15.24×15.24 cm) was fitted onto the conjoined plates. At Day 56 post SNI and at 30-min post CNO injection, we placed mice on the reference plate facing the back wall. Mice then freely explored the chamber for 5 min, while an overhead camera recorded the chamber position and locomotion. After each trial, the mouse was returned to the holding cylinder, while the test plate temperature was rapidly cooled or heated to the next randomly assigned temperature trial. This procedure was repeated until all temperature trials were collected (6 temperature trials total). Video files for each trial were later analyzed using automated tracking software (Ethovision, Noldus) for path tracking, time spent on the test plate, and number of entries onto the test plate.

noci-TRAP^hM4 mice = assay: Thermal gradient track adaptive avoidance; settings: versus saline
Method: To evaluate affective-motivational responses evoked by thermal stimulation (81), we applied either a single, unilateral 50-μL drop of water (5, 30, or 55° C.) or acetone (evaporative cooling) to the left hindpaw, and the duration of attending behavior was collected for up to 60 s after the stimulation. Only one drop stimulation was applied on a given testing session. To evaluate adaptive thermal avoidance and temperature preference, we placed mice in the center of a linear Thermal Gradient Track (121.92-cm L×8.25-cm W metal alloy floor; 15.24-cm H black plastic walls), with the floor featuring a temperature gradient along the long axis. Mice freely explored the track for 60 min. To create the temperature gradient, we placed either heating or cooling plates (Bioseb) under the outermost 16.51 cm of the metal floor, with one plate set to 50.0° C. and the other set to 0.0° C., creating an actual floor gradient of 48° C.→5° C., respectively. The track was subdivided into 25 temperature zones (4.8-cm D per zone), and we assessed the temperature at the center of each zone by a K-probe thermocouple. […] A video camera placed above the track recorded the position of the mouse within the temperature zones, and videos were later analyzed using a video-tracking software (Etho-vision, Noldus) for duration of zone occupancy, zone visits, distance, velocity, and acceleration.

C[N+]1([O-])CCN(C2=Nc3cc(Cl)ccc3Nc3ccccc32)CC1 [CNO, clozapine-N-oxide]
reflexive hypersensitivity [1]: did not alter
neuropathic affective-motivational behaviors ([1]; regardless of stimulus intensity or modality): profound decrease
preference between cold and neutral temperature chambers [2]: near-total indifference
visits to the noxious zones (noci-TRAP^hM4 mice; polar ends noxious cold (5 to 17° C.) and hot (42 to 8° C.)): more frequently
occupancy of the noxious zones (noci-TRAP^hM4 mice; polar ends noxious cold (5 to 17° C.) and hot (42 to 48° C.)): prolonged periods
